Results taken from patent publication US10385057B2, “Pyrazole compounds and methods of making and using same” (Lundbeck La Jolla Research Center, Inc., priority 2015, dated 2019).

Legend:
FAAH = molecular target: T1, FAAH (Mus musculus, UniProt O08914); experiment: In vitro competitive activity-based protein profiling, mouse FAAH; assay type: biochemical; conditions: for inhibition at 1 µM: read-out: FAAH % inh. 1 μM (mouse)
T1 construct: mouse brain membrane fraction or cell lysates for mouse assays; from tissue
T1 sequence (O08914 1-579): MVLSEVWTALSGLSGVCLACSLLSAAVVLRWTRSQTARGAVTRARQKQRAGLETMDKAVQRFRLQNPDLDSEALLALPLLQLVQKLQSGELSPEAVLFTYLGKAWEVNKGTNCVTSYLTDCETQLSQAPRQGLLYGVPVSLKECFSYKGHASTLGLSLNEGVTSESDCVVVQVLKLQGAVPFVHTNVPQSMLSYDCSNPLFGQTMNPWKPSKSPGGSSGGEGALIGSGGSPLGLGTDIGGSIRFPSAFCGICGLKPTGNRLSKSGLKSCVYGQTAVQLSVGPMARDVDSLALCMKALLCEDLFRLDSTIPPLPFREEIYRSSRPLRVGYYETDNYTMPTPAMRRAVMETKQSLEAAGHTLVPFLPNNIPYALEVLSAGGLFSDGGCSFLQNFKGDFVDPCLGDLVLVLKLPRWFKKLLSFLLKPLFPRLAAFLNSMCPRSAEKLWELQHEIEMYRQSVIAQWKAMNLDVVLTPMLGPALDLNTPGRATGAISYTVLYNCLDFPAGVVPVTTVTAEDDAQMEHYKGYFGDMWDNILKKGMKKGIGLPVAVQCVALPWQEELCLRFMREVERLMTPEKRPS
Protocol: (§1) In Vitro Competitive Activity-Based Protein Profiling.
(§2) Proteomes (mouse brain membrane fraction or cell lysates for mouse assays; human prefrontal cortex or cell membrane fractions for human assays) (50 μL, 1.0 mg/mL total protein concentration) were preincubated with varying concentrations of inhibitors at 37° C. After 30 min, FP-Rh or HT-01 (1.0 μL, 50 μM in DMSO) was added and the mixture was incubated for another 30 min at 37° C. Reactions were quenched with SDS loading buffer (15 μL—4×) and run on SDS-PAGE. Following gel imaging, serine hydrolase activity was determined by measuring fluorescent intensity of gel bands corresponding to MAGL and FAAH using ImageJ 1.43u software.

MAGL = molecular target: T2, MAGL (Mus musculus, UniProt O35678); experiment: In vitro competitive activity-based protein profiling, mouse MAGL; assay type: biochemical; conditions: for inhibition at 1 µM: read-out: MAGL % inh. 1 μM (mouse)
T2 construct: mouse brain membrane fraction or cell lysates for mouse assays; from tissue
T2 sequence (O35678 1-303): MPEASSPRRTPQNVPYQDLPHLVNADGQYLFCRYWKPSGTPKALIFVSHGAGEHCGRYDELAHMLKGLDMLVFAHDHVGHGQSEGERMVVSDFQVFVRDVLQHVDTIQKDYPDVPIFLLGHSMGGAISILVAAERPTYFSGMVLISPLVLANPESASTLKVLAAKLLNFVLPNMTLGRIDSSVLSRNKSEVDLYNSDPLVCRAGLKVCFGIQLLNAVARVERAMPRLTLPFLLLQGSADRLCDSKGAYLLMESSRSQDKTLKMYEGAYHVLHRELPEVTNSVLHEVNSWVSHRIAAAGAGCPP
Protocol: as §1, §2

SMILES | IC50 (FAAH) | IC50 (MAGL) | inhibition at 1 µM (FAAH; 1 μM) | inhibition at 1 µM (MAGL; 1 μM) | FAAH % inh. 1 μM (mouse) (FAAH; 1 μM) | MAGL % inh. 1 μM (mouse) (MAGL; 1 μM)
CNC(=O)c1cnn(C(=O)N2CCC3(CCN(Cc4cc(Cl)ccc4Cl)C3)C2)c1 (stereo not drawn) [Example 40, 1-(7-(2,5-dichlorobenzyl)-2,7-diazaspiro[4.4]nonane-2-carbonyl)-N-methyl-1H-pyrazole-4-carboxamide] |  |  | ≥ 75% | ≥ 75% |  | 
CC(=O)N(Cc1cccc(Cl)c1)[C@@H]1C[C@@H]2CN(C(=O)n3cc(Cl)cn3)C[C@@H]2C1 [Example 60, N-(cis-2-(4-chloro-1H-pyrazole-1-carbonyl)octahydrocyclopenta[c]pyrrol-5-yl)-N-(3-chlorobenzyl)acetamide] | ≤ 100 nM | ≤ 100 nM | ≥ 75% | ≥ 75% |  | 
CN(Cc1ccccc1Cl)[C@@H]1C[C@@H]2CN(C(=O)n3cc(C(=O)N4CCCC4)cn3)C[C@@H]2C1 [Example 57, (trans-5-((2-chlorobenzyl)(methyl)amino)hexahydrocyclopenta[c]pyrrol-2(1H)-yl)(4-(pyrrolidine-1-carbonyl)-1H-pyrazol-1-yl)methanone] |  |  |  |  | A (% inhibition greater than or equal to 75%) | B (% inhibition greater than or equal to 50% and less than 75%)
O=C(N1CC2CN(Cc3ccc(N4CCCC4)cc3)CC2C1)n1cc(Cl)cn1 (stereo not drawn) [Example 123, (4-chloro-1H-pyrazol-1-yl)(5-(4-(pyrrolidin-1-yl)benzyl)hexahydropyrrolo[3,4-c]pyrrol-2(1H)-yl)methanone] | 100 to 1000 nM | 100 to 1000 nM | ≥ 75% | ≥ 75% |  | 
O=C(N1CCC2(CCN(Cc3ccccc3C(F)(F)F)C2)C1)n1cc(C(F)(F)F)cn1 (stereo not drawn) [Example 180, (4-(trifluoromethyl)-1H-pyrazol-1-yl)(7-(2-(trifluoromethyl)benzyl)-2,7-diazaspiro[4.4]nonan-2-yl)methanone] |  |  | ≥ 75% | ≥ 75% |  | 
Cc1ccccc1CN1CCC2(CCN(C(=O)n3cc(C(F)(F)F)cn3)C2)C1 (stereo not drawn) [Example 178, (7-(2-methylbenzyl)-2,7-diazaspiro[4.4]nonan-2-yl)(4-(trifluoromethyl)-1H-pyrazol-1-yl)methanone] | 100 to 1000 nM | 100 to 1000 nM | ≥ 75% | ≥ 75% |  | 
NC(=O)c1cnn(C(=O)N2CCC3(CCN(Cc4ccc(-c5nccs5)cc4Cl)C3)C2)c1 (stereo not drawn) [Example 201, 1-(7-(2-chloro-4-(thiazol-2-yl)benzyl)-2,7-diazaspiro[4.4]nonane-2-carbonyl)-1H-pyrazole-4-carboxamide] |  |  | ≥ 75% | ≥ 75% |  | 
CN(Cc1ccc(Oc2cccnc2)cc1)[C@H]1C[C@@H]2CN(C(=O)n3cc(Cl)cn3)C[C@@H]2C1 [Example 161, (4-chloro-1H-pyrazol-1-yl)(trans-5-(methyl(4-(pyridin-3-yloxy)benzyl)amino)hexahydrocyclopenta[c]pyrrol-2(1H)-yl)methanone] |  |  | ≥ 75% | ≥ 75% |  | 
CN(Cc1ccc(C(F)(F)F)cc1)[C@@H]1C[C@@H]2CN(C(=O)n3cc(Cl)cn3)C[C@@H]2C1 [Example 76, (4-chloro-1H-pyrazol-1-yl)(cis-5-(methyl(4-(trifluoromethyl)benzyl)amino)hexahydrocyclopenta[c]pyrrol-2(1H)-yl)methanone] | ≤ 100 nM | ≤ 100 nM | ≥ 75% | ≥ 75% |  | 

More lines, main results first:

IC50 (FAAH) | IC50 (MAGL) | inhibition at 1 µM (FAAH; 1 μM) | inhibition at 1 µM (MAGL; 1 μM) | SMILES | FAAH % inh. 1 μM (mouse) (FAAH; 1 μM) | MAGL % inh. 1 μM (mouse) (MAGL; 1 μM)
≤ 100 nM | ≤ 100 nM |  |  | O=C(N1CCC2(CCN(Cc3ccc(Cl)c(Cl)c3)C2)C1)n1cc(Cl)cn1 (single isomer, unassigned) [Example 140, (4-chloro-1H-pyrazol-1-yl)(7-(3,4-dichlorobenzyl)-2,7-diazaspiro[4.4]nonan-2-yl)methanone] |  | 
 |  | ≥ 75% | ≥ 75% | CN(Cc1cc(Cl)ccc1C(F)(F)F)[C@@H]1C[C@@H]2CN(C(=O)n3cc(C(N)=O)cn3)C[C@@H]2C1 [Example 219, 1-(cis-5-((5-chloro-2-(trifluoromethyl)benzyl)(methyl)amino)octahydrocyclopenta[c]pyrrole-2-carbonyl)-1H-pyrazole-4-carboxamide] |  | 
≤ 100 nM | ≤ 100 nM | ≥ 75% | ≥ 75% | NC(=O)c1cnn(C(=O)N2CC3CN(Cc4cc(Cl)ccc4Cl)CC3C2)c1 (stereo not drawn) [Example 20, 1-(5-(2,5-dichlorobenzyl)octahydropyrrolo[3,4-c]pyrrole-2-carbonyl)-1H-pyrazole-4-carboxamide] |  | 
≤ 100 nM | ≤ 100 nM | ≥ 75% | ≥ 75% | NC(=O)c1cnn(C(=O)N2CC3CN(Cc4ccc(C(F)(F)F)cc4)CC3C2)c1 (stereo not drawn) [Example 18, 1-(5-(4-(trifluoromethyl)benzyl)octahydropyrrolo[3,4-c]pyrrole-2-carbonyl)-1H-pyrazole-4-carboxamide] |  | 
≤ 100 nM | 100 to 1000 nM | ≥ 75% | ≥ 75% | O=C(N1CCC2(CCN(Cc3cccc(F)c3)C2)C1)n1cc(C(F)(F)F)cn1 (stereo not drawn) [Example 169, (7-(3-fluorobenzyl)-2,7-diazaspiro[4.4]nonan-2-yl)(4-(trifluoromethyl)-1H-pyrazol-1-yl)methanone] |  | 
 |  | ≥ 75% | ≥ 75% | NC(=O)c1cnn(C(=O)N2CCC3(CCN(Cc4ccc(C(F)(F)F)c(N5CCOCC5)c4)C3)C2)c1 (stereo not drawn) [Example 208, 1-(7-(3-morpholino-4-(trifluoromethyl)benzyl)-2,7-diazaspiro[4.4]nonane-2-carbonyl)-1H-pyrazole-4-carboxamide] |  | 
≤ 100 nM | 100 to 1000 nM | ≥ 75% | ≥ 75% | Cc1cc(N2CCOCC2)ccc1CN1CCC2(CCN(C(=O)n3cc(Cl)cn3)C2)C1 (stereo not drawn) [Example 138, (4-chloro-1H-pyrazol-1-yl)(7-(2-methyl-4-morpholinobenzyl)-2,7-diazaspiro[4.4]nonan-2-yl)methanone] |  | 
≤ 100 nM | 100 to 1000 nM | ≥ 75% | ≥ 75% | O=C(N1CCC2(CCN(Cc3cccc(Oc4ccccc4)c3)C2)C1)n1cc(Cl)cn1 (stereo not drawn) [Example 135, (4-chloro-1H-pyrazol-1-yl)(7-(3-phenoxybenzyl)-2,7-diazaspiro[4.4]nonan-2-yl)methanone] |  | 
≤ 100 nM | ≤ 100 nM | ≥ 75% | ≥ 75% | O=C(N1CC2CN(Cc3ccc(Cl)cc3N3CCOCC3)CC2C1)n1cc(Cl)cn1 (stereo not drawn) [Example 99, (4-chloro-1H-pyrazol-1-yl)(5-(4-chloro-2-morpholinobenzyl)hexahydropyrrolo[3,4-c]pyrrol-2(1H)-yl)methanone] |  | 
 |  | 25 to 50% | ≥ 75% | O=C(N1CCC2(CCN(Cc3ccccc3N3CCCC3)C2)C1)n1cc(C(F)(F)F)cn1 (stereo not drawn) [Example 181, (7-(2-(pyrrolidin-1-yl)benzyl)-2,7-diazaspiro[4.4]nonan-2-yl)(4-(trifluoromethyl)-1H-pyrazol-1-yl)methanone] |  | 
 |  | ≥ 75% | ≥ 75% | CC1COCCN1c1cc(Cl)ccc1CN1CC2CN(C(=O)n3cc(Cl)cn3)CC2C1 (stereo not drawn) [Example 105, (4-chloro-1H-pyrazol-1-yl)(5-(4-chloro-2-(3-methylmorpholino)benzyl)hexahydropyrrolo[3,4-c]pyrrol-2(1H)-yl)methanone] |  | 
 |  | ≥ 75% | 50 to 75% | CN(Cc1ccc(N2CCOCC2)cc1)[C@H]1C[C@@H]2CN(C(=O)n3cc(Cl)cn3)C[C@@H]2C1 [Example 79, (4-chloro-1H-pyrazol-1-yl)(trans-5-(methyl(4-morpholinobenzyl)amino)hexahydrocyclopenta[c]pyrrol-2(1H)-yl)methanone] |  | 
≤ 100 nM | ≤ 100 nM | ≥ 75% | ≥ 75% | CN(Cc1cccc(Oc2cccnc2)c1)[C@H]1C[C@@H]2CN(C(=O)n3cc(Cl)cn3)C[C@@H]2C1 [Example 163, (4-chloro-1H-pyrazol-1-yl)(trans-5-(methyl(3-(pyridin-3-yloxy)benzyl)amino)hexahydrocyclopenta[c]pyrrol-2(1H)-yl)methanone] |  | 
